Laboratory results: patent US7928098B2, “Therapeutic and/or preventive agents for a sleep disorder” (Kyowa Hakko Kirin Co., Ltd., priority 2005, dated 2011)

Compound | melting point
O=C(Nc1nc(-c2ccco2)c(C(=O)c2ccc(N3CCOCC3)nc2)s1)c1ccncc1 [Compound 231, N-[4-(2-Furyl)-5-(2-morpholinopyridin-5-ylcarbonyl)thiazol-2-yl]pyridine-4-carboxamide] | 195 to 220 °C
CN1CCN(c2ccc(C(=O)c3sc(NC(=O)c4ccncc4)nc3-c3ccco3)cn2)CC1 [Compound 232, N-{4-(2-Furyl)-5-[2-(4-methylpiperazin-1-yl)pyridin-5-ylcarbonyl]thiazol-2-yl}pyridine-4-carboxamide] | 195 to 205 °C
O=C(Nc1nc(-c2ccco2)c(C(=O)c2ccc(N3CCC(O)CC3)nc2)s1)c1ccncc1 [Compound 233, N-{4-(2-Furyl)-5-[2-(4-hydroxypiperidino)pyridin-5-ylcarbonyl]thiazol-2-yl}pyridine-4-carboxamide] | 264 to 268 °C
O=C(Nc1nc(-c2ccco2)c(C(=O)c2ccncc2)s1)c1ccncc1 [Compound 236, N-[4-(2-Furyl)-5-(pyridin-4-ylcarbonyl)thiazol-2-yl]pyridine-4-carboxamide] | 276 to 285 °C
Cc1cc(C(=O)c2sc(NC(=O)c3ccncc3)nc2-c2ccco2)ccn1 [Compound 239, N-[4-(2-Furyl)-5-(2-methylpyridin-4-ylcarbonyl)thiazol-2-yl]pyridine-4-carboxamide] | 223 to 225 °C
COc1cc(C(=O)c2sc(NC(=O)c3ccncc3)nc2-c2ccco2)ccn1 [Compound 243, N-[4-(2-Furyl)-5-(2-methoxypyridin-4-ylcarbonyl)thiazol-2-yl]pyridine-4-carboxamide] | 237 to 239 °C
O=C(Nc1nc(-c2ccco2)c(C(=O)c2ccnc(N3CCOCC3)c2)s1)c1ccncc1 [Compound 246, N-[4-(2-Furyl)-5-(2-morpholinopyridin-4-ylcarbonyl)thiazol-2-yl]pyridine-4-carboxamide] | 270 to 273 °C
O=C(Nc1nc(-c2ccco2)c(C(=O)c2ccco2)s1)c1ccncc1 [Compound 249, N-[4-(Furan-2-yl)-5-(furan-2-ylcarbonyl)thiazol-2-yl]pyridine-4-carboxamide] | 245 to 248 °C
Cc1ccc(C(=O)c2sc(NC(=O)c3ccncc3)nc2-c2ccco2)o1 [Compound 250, N-[4-(2-Furyl)-5-(5-methylfuran-2-ylcarbonyl)thiazol-2-yl]pyridine-4-carboxamide] | 185 to 189 °C
O=C(Nc1nc(-c2ccco2)c(C(=O)c2ccoc2)s1)c1ccncc1 [Compound 253, N-[4-(Furan-2-yl)-5-(furan-3-ylcarbonyl)thiazol-2-yl]pyridine-4-carboxamide] | 217 to 231 °C
O=C(Nc1nc(-c2ccco2)c(C(=O)c2cccs2)s1)c1ccncc1 [Compound 254, N-[4-(2-Furyl)-5-(thiophen-2-ylcarbonyl)thiazol-2-yl]-pyridine-4-carboxamide] | 208 to 210 °C
O=C(Nc1nc(-c2ccco2)c(C(=O)c2nccs2)s1)c1ccncc1 [Compound 255, N-[4-(2-Furyl)-5-(thiazol-2-ylcarbonyl)thiazol-2-yl]pyridine-4-carboxamide] | 228 to 240 °C
Cc1cnc(C(=O)c2sc(NC(=O)c3ccncc3)nc2-c2ccco2)s1 [Compound 256, N-[4-(2-Furyl)-5-(5-methylthiazol-2-ylcarbonyl)thiazol-2-yl]pyridine-4-carboxamide] | 275 to 277 °C (dec.)
Cc1csc(C(=O)c2sc(NC(=O)c3ccncc3)nc2-c2ccco2)n1 [Compound 257, N-[4-(2-Furyl)-5-(4-methylthiazol-2-ylcarbonyl)thiazol-2-yl]pyridine-4-carboxamide] | 250 to 255 °C
Cn1ccc(C(=O)c2sc(NC(=O)c3ccncc3)nc2-c2ccco2)c1 [Compound 261, N-[4-(2-Furyl)-5-(1-methylpyrrol-3-ylcarbonyl)thiazol-2-yl]pyridine-4-carboxamide] | 209 to 211 °C
CCn1ccc(C(=O)c2sc(NC(=O)c3ccncc3)nc2-c2ccco2)c1 [Compound 262, N-[5-(1-Ethylpyrrol-3-ylcarbonyl)-4-(2-furyl)thiazol-2-yl]pyridine-4-carboxamide] | 127 to 134 °C
O=C(Nc1nc(-c2ccco2)c(C(=O)c2ccn(Cc3ccccc3)c2)s1)c1ccncc1 [Compound 263, N-[5-(1-Benzylpyrrol-3-ylcarbonyl)-4-(2-furyl)thiazol-2-yl]pyridine-4-carboxamide] | 175 to 178 °C
O=C(Nc1nc(-c2ccco2)c(C(=O)c2ccc(=O)n(Cc3ccccc3)c2)s1)c1ccncc1 [Compound 271, N-[5-(1-Benzyl-2-oxo-1,2-dihydropyridin-5-ylcarbonyl)-4-(2-furyl)thiazol-2-yl]pyridine-4-carboxamide] | 265 to 282 °C (dec.)
Cn1ccc(C(=O)c2sc(NC(=O)c3ccncc3)nc2-c2ccco2)cc1=O [Compound 274, N-[4-(2-Furyl)-5-(1-methyl-2-oxo-1,2-dihydropyridin-4-ylcarbonyl)thiazol-2-yl]pyridine-4-carboxamide] | 243 to 255 °C (dec.)
CCn1ccc(C(=O)c2sc(NC(=O)c3ccncc3)nc2-c2ccco2)cc1=O [Compound 276, N-[5-(1-Ethyl-2-oxo-1,2-dihydropyridin-4-ylcarbonyl)-4-(2-furyl)thiazol-2-yl]pyridine-4-carboxamide] | 277 to 281 °C
O=C(Nc1nc(-c2ccco2)c(C(=O)c2ccn(Cc3ccccc3)c(=O)c2)s1)c1ccncc1 [Compound 278, N-[5-(1-Benzyl-2-oxo-1,2-dihydropyridin-4-ylcarbonyl)-4-(2-furyl)thiazol-2-yl]pyridine-4-carboxamide] | 288 to 291 °C
O=C(Nc1nc(-c2ccco2)c(C(=O)c2cnccn2)s1)c1ccncc1 [Compound 281, N-[4-(2-Furyl)-5-(pyrazin-2-ylcarbonyl)thiazol-2-yl]pyridine-4-carboxamide] | > 300 °C
O=C(Nc1nc(-c2ccco2)c(C(=O)C(F)(F)F)s1)c1ccncc1 [Compound 287, N-[4-(2-Furyl)-5-(trifluoroacetyl)thiazol-2-yl]pyridine-4-carboxamide] | 268 to 270 °C
CCC(=O)c1sc(NC(=O)c2ccncc2)nc1-c1ccco1 [Compound 288, N-[4-(2-Furyl)-5-propionylthiazol-2-yl]pyridine-4-carboxamide] | 225 to 240 °C (dec.)
CCCC(=O)c1sc(NC(=O)c2ccncc2)nc1-c1ccco1 [Compound 289, N-[5-Butyryl-4-(2-furyl)thiazol-2-yl]pyridine-4-carboxamide] | 191 to 194 °C
CC(C)C(=O)c1sc(N)nc1-c1ccco1 [Compound 299, 2-Amino-4-(2-furyl)thiazol-5-yl isopropyl ketone] | 195 to 199 °C

Further lines, results first:

melting point | Compound
229 to 231 °C | Cc1ccc(C(=O)c2sc(NC(=O)c3ccoc3)nc2-c2ccco2)cn1 [Compound 223, N-[4-(2-Furyl)-5-(2-methylpyridin-5-ylcarbonyl)thiazol-2-yl]furan-3-carboxamide]
246 to 257 °C (dec.) | COc1ccc(C(=O)c2sc(NC(=O)c3ccncc3)nc2-c2ccco2)cn1 [Compound 226, N-[4-(2-Furyl)-5-(2-methoxypyridin-5-ylcarbonyl)thiazol-2-yl]pyridine-4-carboxamide]
260 to 265 °C (dec.) | CN(C)c1ccc(C(=O)c2sc(NC(=O)c3ccncc3)nc2-c2ccco2)cn1 [Compound 230, N-{5-[2-(Dimethylamino)pyridin-5-ylcarbonyl]-4-(2-furyl)thiazol-2-yl}pyridine-4-carboxamide]
205 to 229 °C | Cc1cc(C(=O)Nc2nc(-c3ccco3)c(C(=O)c3ccnc(C)c3)s2)ccn1 [Compound 240, N-[4-(2-Furyl)-5-(2-methylpyridin-4-ylcarbonyl)thiazol-2-yl]-2-methylpyridine-4-carboxamide]
270 to 272 °C (dec.) | Cc1nc(C(=O)c2sc(NC(=O)c3ccncc3)nc2-c2ccco2)sc1C [Compound 258, N-[5-(4,5-Dimethylthiazol-2-ylcarbonyl)-4-(2-furyl)thiazol-2-yl]pyridine-4-carboxamide]
259 to 260 °C | O=C(Nc1nc(-c2ccco2)c(C(=O)c2cc[nH]c2)s1)c1ccncc1 [Compound 260, N-[4-(2-Furyl)-5-(pyrrol-3-ylcarbonyl)thiazol-2-yl]pyridine-4-carboxamide]
294 to 295 °C | Cn1cc(C(=O)c2sc(NC(=O)c3ccncc3)nc2-c2ccco2)ccc1=O [Compound 267, N-[4-(2-Furyl)-5-(1-methyl-2-oxo-1,2-dihydropyridin-5-ylcarbonyl)thiazol-2-yl]pyridine-4-carboxamide]
295 to 296 °C | CCn1cc(C(=O)c2sc(NC(=O)c3ccncc3)nc2-c2ccco2)ccc1=O [Compound 269, N-[5-(1-Ethyl-2-oxo-1,2-dihydropyridin-5-ylcarbonyl)-4-(2-furyl)thiazol-2-yl]pyridine-4-carboxamide]
> 300 °C | O=C(Nc1nc(-c2ccco2)c(C(=O)c2ccncn2)s1)c1ccncc1 [Compound 282, N-[4-(2-Furyl)-5-(pyrimidine-4-ylcarbonyl)thiazol-2-yl]pyridine-4-carboxamide]
280 to 281 °C | O=C(Nc1nc(-c2ccco2)c(C(=O)c2cccnn2)s1)c1ccncc1 [Compound 283, N-[4-(2-Furyl)-5-(pyridazine-3-ylcarbonyl)thiazol-2-yl]pyridine-4-carboxamide]
252 to 259 °C (dec.) | CC(=O)c1sc(NC(=O)c2ccncc2)nc1-c1ccco1 [Compound 284, N-[5-Acetyl-4-(2-furyl)thiazol-2-yl]pyridine-4-carboxamide]
170 to 172 °C | CCCC(=O)c1sc(NC(=O)C2CC2)nc1-c1ccco1 [Compound 292, N-[5-Butyryl-4-(2-furyl)thiazol-2-yl]cyclopropanecarboxamide]
172 to 176 °C | CCCC(=O)c1sc(NC(=O)c2ccco2)nc1-c1ccco1 [Compound 293, N-[5-Butyryl-4-(2-furyl)thiazol-2-yl]furan-2-carboxamide]
179 to 182 °C | CC(C)C(=O)c1sc(NC(=O)c2ccncc2)nc1-c1ccco1 [Compound 300, N-[4-(2-Furyl)-5-isobutyrylthiazol-2-yl]pyridine-4-carboxamide]
